ChEMBL document CHEMBL1201862, “PubChem BioAssay data set” (2004)
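All cell lines were grown in 96-well plates and treated with compound for 48 hours. GI50: concentration for 50% inhibition of growth.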 Activity calls are given as the source filed them. Cut-off read from the data, not from the text of the source: active = GI50 up to about 1.1 µM and inactive = higher.

Tests used:
Experiment in all cases: NCI-60 cell line screen, 48 h
SW-620 = test system: SW-620
NCI-H23 = test system: NCI-H23
NCI-H460 = test system: NCI-H460
OVCAR-4 = test system: OVCAR-4
MDA-MB-231 = test system: MDA-MB-231
PC-3 = test system: PC-3
RXF 393 = test system: RXF 393
HT-29 = test system: HT-29
SK-MEL-5 = test system: SK-MEL-5
MCF7 = test system: MCF7
ACHN = test system: ACHN
A498 = test system: A498
BT-549 = test system: BT-549
SK-MEL-28 = test system: SK-MEL-28
SF-539 = test system: SF-539
MDA-MB-435 = test system: MDA-MB-435
SF-268 = test system: SF-268
OVCAR-8 = test system: OVCAR-8
DU-145 = test system: DU-145

SMILES	GI50 (SW-620)	GI50 (NCI-H23)	GI50 (NCI-H460)	GI50 (OVCAR-4)	GI50 (MDA-MB-231)	GI50 (PC-3)	GI50 (RXF 393)	GI50 (HT-29)	GI50 (SK-MEL-5)	GI50 (MCF7)	GI50 (ACHN)	GI50 (A498)	GI50 (BT-549)	GI50 (SK-MEL-28)	GI50 (SF-539)	GI50 (MDA-MB-435)	GI50 (SF-268)	GI50 (OVCAR-8)	GI50 (DU-145)
O=[N+]([O-])c1ccc(C(=S)Nc2ccccc2)o1	1.27 µM (inactive)	3.35 µM (inactive)	3.19 µM (inactive)	2.43 µM (inactive)	2.74 µM (inactive)	1.79 µM (inactive)	4.14 µM (inactive)	1.85 µM (inactive)	10.9 µM (inactive)	2.05 µM (inactive)	2.36 µM (inactive)	18.1 µM (inactive)	4.76 µM (inactive)	4.27 µM (inactive)	1.58 µM (inactive)	2.58 µM (inactive)	3.36 µM (inactive)	2.51 µM (inactive)	6.41 µM (inactive)
Clc1ccc2oc(CCC3CCCCC3)nc2c1	31.8 µM (inactive)	29.9 µM (inactive)	24.9 µM (inactive)	27.4 µM (inactive)	28.3 µM (inactive)	33 µM (inactive)	15.1 µM (inactive)	23.5 µM (inactive)	16.9 µM (inactive)	26.1 µM (inactive)	40.6 µM (inactive)	37.8 µM (inactive)	26.8 µM (inactive)	33.3 µM (inactive)	32.1 µM (inactive)	27.3 µM (inactive)	64.7 µM (inactive)	44.1 µM (inactive)	34.3 µM (inactive)
COc1ccc2c(c1OC)C(=O)N1C2=Cc2c(cc3c(c2OC)OCO3)CC1N(C)C (stereo not given)	62.1 µM (inactive)	34 µM (inactive)	28.8 µM (inactive)	30.1 µM (inactive)	81.1 µM (inactive)	30.9 µM (inactive)	54.5 µM (inactive)		45.1 µM (inactive)	58.7 µM (inactive)	29.9 µM (inactive)	47.8 µM (inactive)	33.3 µM (inactive)	46.1 µM (inactive)	59.2 µM (inactive)	53.3 µM (inactive)	63.5 µM (inactive)	35.7 µM (inactive)	43.8 µM (inactive)
C[C@@H]1C[C@H]2CC[C@H](O2)[C@H](C)C(=O)O[C@@H](C)C[C@@H]2CC[C@@H](O2)[C@@H](C)C(=O)O[C@H](C)C[C@H]2CC[C@H](O2)[C@H](C)C(=O)O[C@@H](C)C[C@@H]2CC[C@@H](O2)[C@@H](C)C(=O)O1	0.349 µM (active)	0.224 µM (active)	0.426 µM (active)	0.136 µM (active)	0.345 µM (active)	0.218 µM (active)	0.356 µM (active)	0.237 µM (active)	0.154 µM (active)	0.326 µM (active)	0.212 µM (active)	0.859 µM (active)	0.396 µM (active)	1.96 µM (inactive)	1.58 µM (inactive)	0.338 µM (active)	0.316 µM (active)	0.295 µM (active)	1.43 µM (inactive)
O=c1[nH]cnc2c1sc1nc3ccccc3n12	> 100 µM (inactive)	> 100 µM (inactive)		> 100 µM (inactive)	> 100 µM (inactive)	88.5 µM (inactive)	16.3 µM (inactive)	> 100 µM (inactive)	> 100 µM (inactive)	76.4 µM (inactive)	> 100 µM (inactive)	33.3 µM (inactive)	> 100 µM (inactive)	> 100 µM (inactive)	61.9 µM (inactive)	> 100 µM (inactive)	> 100 µM (inactive)	> 100 µM (inactive)	> 100 µM (inactive)
CC[C@@]1(O)C(=O)OCc2c1cc1n(c2=O)Cc2c-1nc1ccccc1c2CC[Si](C)(C)C [COSITECAN]	0.0101 µM (active)	< 0.01 µM (active)	< 0.01 µM (active)	0.0998 µM (active)	0.417 µM (active)	< 0.0389 µM (active)	< 0.01 µM (active)	< 0.01 µM (active)	< 0.01 µM (active)	< 0.01 µM (active)	< 0.01 µM (active)	< 0.01 µM (active)	0.023 µM (active)		< 0.01 µM (active)	< 0.01 µM (active)	< 0.01 µM (active)	< 0.01 µM (active)	< 0.01 µM (active)
CNc1cc(Cl)ccc1C(=O)N1CCC[C@H]1CO	> 100 µM (inactive)	> 100 µM (inactive)		29.2 µM (inactive)	> 100 µM (inactive)	> 100 µM (inactive)	> 100 µM (inactive)	> 100 µM (inactive)	74.1 µM (inactive)	> 100 µM (inactive)	> 100 µM (inactive)	> 100 µM (inactive)	> 100 µM (inactive)	> 100 µM (inactive)	> 100 µM (inactive)	> 100 µM (inactive)	> 100 µM (inactive)	> 100 µM (inactive)	> 100 µM (inactive)
COC(=O)/C=C1\SC2(O\C1=N/c1ccccc1)C1CC3CC(C1)CC2C3 (stereo not given)	> 100 µM (inactive)		> 100 µM (inactive)	36.1 µM (inactive)	> 100 µM (inactive)	> 100 µM (inactive)	> 100 µM (inactive)	> 100 µM (inactive)	> 100 µM (inactive)	> 100 µM (inactive)	> 100 µM (inactive)	> 100 µM (inactive)	> 100 µM (inactive)	> 100 µM (inactive)	> 100 µM (inactive)	> 100 µM (inactive)		> 100 µM (inactive)	> 10 µM (inactive)
O=C(CCc1ccc(O)cc1)NCCc1cccc(OCc2ccccc2)c1		24.4 µM (inactive)	22.8 µM (inactive)	31.6 µM (inactive)	29 µM (inactive)	20.1 µM (inactive)	15.8 µM (inactive)	19.5 µM (inactive)	17.4 µM (inactive)	27.9 µM (inactive)	33.2 µM (inactive)	55.8 µM (inactive)	16.7 µM (inactive)	22.7 µM (inactive)	16.5 µM (inactive)	18.1 µM (inactive)	26.5 µM (inactive)	26.2 µM (inactive)	30.8 µM (inactive)
N#CC(C#N)=C1/C(=C/C=C/C=C/C=C/c2ccc(N3CCCCC3)s2)S(=O)(=O)c2ccccc21	> 100 µM (inactive)	> 100 µM (inactive)	> 100 µM (inactive)	> 100 µM (inactive)	> 100 µM (inactive)	> 100 µM (inactive)	> 100 µM (inactive)	> 100 µM (inactive)	> 100 µM (inactive)	> 100 µM (inactive)	> 100 µM (inactive)	> 100 µM (inactive)	> 100 µM (inactive)	> 100 µM (inactive)	> 100 µM (inactive)	> 100 µM (inactive)		67.3 µM (inactive)	55 µM (inactive)
Cn1c2c(c3ccccc31)CCN=C2C1CCCOC1=O (stereo not given)	> 100 µM (inactive)		> 100 µM (inactive)	> 100 µM (inactive)	> 100 µM (inactive)	> 100 µM (inactive)	> 100 µM (inactive)	> 100 µM (inactive)	> 100 µM (inactive)	> 100 µM (inactive)	> 100 µM (inactive)	> 100 µM (inactive)	47 µM (inactive)	> 100 µM (inactive)	> 100 µM (inactive)	> 100 µM (inactive)	> 100 µM (inactive)	> 100 µM (inactive)	> 100 µM (inactive)
